US20250082630A1, “METHODS OF TREATING BRAIN TUMOURS AND NEUROBLASTOMAS” (AstraZeneca AB, priority 2021, published 2025)

Experiments:
DLD1 cells = experiment: PARP proliferation assay (7 day compound dosing), WT DLD1; format: cell-based; conditions: Homo sapiens, DLD-1, 168 h, read-out: WT DLD-1 prolif. 7 d IC50
Description: DLD1 and BRCA2 (−/−) DLD1 cells were harvested to a density of 5000 cells/ml and 2.5E4 cells/ml respectively in complete media, 40 μL/well seeded into 384-well plates (Greiner, Kremsmunster, Austria; 781090) using a Multidrop Combi then incubated at 37° C., 5% CO2 overnight. Next day (Day 1) using a Multidrop Combi add sytox green (5ul, 2 uM) and saponin (10 ul, 0.25% stock) to a day 0 plate, seal the plate using a black adhesive lid and incubate for >3 h at it. Cells were imaged using Cell Insight (Thermo Fisher) fitted with a 4x objective. Test compounds are added using an Echo 555 and placed in incubator maintained at 37° C., 5% CO2 and incubated for 7 days. On Day 8 add sytox green (5ul, 2 uM) and then saponin (10 ul, 0.25% stock) to plates, seal the plate using a black adhesive lid and incubate for >3 h at it. Read all cells on the Cell Insight with 4× Objective. The rate of proliferation is determined in Genedata by assessing the total cell number output from the Cell Insight for Day 0 and Day 8 plates.

[1] = Determination of Kpuu in rat; format: in vivo, Han Wistar rats; conditions: Han Wistar, rat, brain and plasma (unbound brain-to-plasma ratio), 2 µmols/kg/h, intravenous infusion
Description: The fraction unbound was determined using the RED Device.
Compounds were prepared as 10 mM solutions in DMSO. […] If less than 9 test compounds were included then the addition volume of blank DMSO was added to make up volume to 40 uL.
Frozen plasma was thawed in a water bath at 37° C. Plasma was then centrifuged for 2 minutes at 4,000 rpm to remove clots and collect supernatant into a fresh tube. The pH of the plasma was checked and only used if within the range of pH 7 to pH 8. 3 μL of the working solution of each cassette was added to 597 μL of blank plasma and vortexed for 5 minutes at 1000 rpm. The final percent volume of organic solvent is 0.5% and the final concentration for test compound was 5 μM. Immediately transfer 50 μL of the spiked plasma suspension to a 96-well plate to act as T=0 control sample. The samples are treated the same as the samples after incubation. The remaining plasma is kept at 37° C. prior to starting the dialysis.
Place inserts open end up into the wells of the base plate. Add 300 μL of spiked plasma sample into the sample chamber, indicated by the red ring. Add 500 μL of phosphate buffer (pH 7.4) to the buffer chamber. Cover the unit with gas permeable lid and incubate for 18 hours at 37° C. at 300 rpm with 5% CO2 on an orbital shaker in the CO2 incubator. At the end of incubation, remove lid and pipette 50 μL of post-dialysis samples from both buffer and plasma chambers into separated 96-well plate for analysis, respectively.
Samples were matrix matched by adding 50 μL of blank rat plasma to the buffer samples and an equal volume of PBS to the collected plasma samples and vortexed to mix. 400 μL of acetonitrile containing an appropriate internal standard (IS) was added to precipitate protein and release compound and mixed by vortexing the plate for 10 minutes followed by centrifugation for 30 minutes at 4,000 rpm. 250 μL of the supernatant was transferred to new 96-well plates and centrifuged again (4,000 rpm, 30 minutes). 100 μL of the supernatant was then transferred to new 96-well plates and mixed with 100 μL of distilled water to each sample by vortex for 5 minutes at 1,000 rpm. Samples were analysed by LC-MS/MS and drug concentrations were determined vs a calibration curve produced from spiked blank plasma with a typical range of 1-7500 nM.
The % unbound was determined as % Unbound=(Conc. buffer chamber/Conc. plasma chamber)×100%. Fraction unbound=% unbound/100.
The principle for the method for the determination of volume unbound in brain slices has previously been published (Development of a High-Throughput Brain Slice Method for Studying Drug Distribution in the Central Nervous System; Fridén et al; Drug Metabolism and Disposition, 2009, 37 (6) 1226-1233). In brief:
Compound stock solutions were prepared in DMSO at the concentration of 10 mM. […] If less than 9 test compounds were included, then blank DMSO was added to make up volume to 40 uL. On the day of the experiment 4 ul was diluted in 40 mL ECF buffer to give a 100 nM solution of each test compounds which was then pre-warmed to 37° C. before the start of the incubation.
To prepare brain slices, rats weighing approximately 300 g were terminally anesthetised with isoflurane by inhalation, the brain carefully removed and immersed in ice-cold oxygenated ECF buffer. The rat brain was transferred to a dish containing ice-cold, 02 supplied ECF buffer and trimmed with razor before gluing to the tray of a microslicer with the brain placed with the back section surface down centrally on the tray. Ice cold ECF buffer was added to harden the glue and wet the brain. The tray was placed in the microslicer and using a suitable cutting speed, 100-400 μm were cut slices until the striatum area appeared. Four to six for each brain, 300 μm thick, coronal slices of striatum areas were cut and placed in ice cold 02 supplied buffer until incubation. Six slices were transferred to the incubation tray containing 40 mL pre warmed (37° C.) cassette mixture. […]

## CNC(=O)c1ccc(N2CCN(Cc3ccc4nc(C)c(=O)[nH]c4c3F)CC2)c(F)n1 [Example 20, 6-fluoro-5-[4-[(5-fluoro-2-methyl-3-oxo-4H-quinoxalin-6-yl)methyl]piperazin-1-yl]-N-methyl-pyridine-2-carboxamide]
DLD1 cells
  IC50: > 30 µM
[1]
  Kp uu at 4 h: 0.27
